In patent US8952024B2, “Herbicidal pyrimidone derivatives” (E I du Pont de Nemours and Company, priority 2009, dated 2015):

What was measured:
Type in all cases: in vivo
[1] = test system: early watergrass (Echinochloa oryzoides); test: Test E flooded paddy rice and weeds; details: applied to paddy water, 21 days, scale 0 to 100
Description: (§1) Three plastic pots (ca. 16-cm diameter) for each application were partially filled with sterilized Tama silt loam soil comprising a 35:50:15 ratio of sand, silt and clay and 2.6% organic matter. Separate plantings for each of the three pots were as follows. Seeds from the U.S. of ducksalad (Heteranthera limosa), sedge (smallflower umbrella sedge, Cyperus difformis), ricefield bulrush (Scirpus mucronatus) and redstem (purple redstem, Ammannia coccinea), were planted into one 16-cm pot for each rate. Seeds from the U.S. of flatsedge (rice flatsedge, Cyperus iria), sprangletop (bearded (i.e. Brdd.) sprangletop, Leptochloa fascicularis), one stand of 9 or 10 water seeded rice seedlings (Oryza sativa cv. ‘Japonica—M202’), and two stands of 3 or 4 transplanted rice seedlings (Oryza sativa cv. ‘Japonica—M202’) were planted into one 16-cm pot for each rate. Seeds from the U.S. of barnyardgrass (Echinochloa crus-galli), late watergrass (Echinochloa oryzicola), early watergrass (Echinochloa oryzoides) and junglerice (Echinochloa colona) were planted into one 16-cm pot for each rate. Plantings were sequential so that crop and weed species were at the 2.0 to 2.5-leaf stage at time of treatment.
(§2) Potted plants were grown in a greenhouse with day/night temperature settings of 30/27° C., and supplemental balanced lighting was provided to maintain a 16-hour photoperiod. Test pots were maintained in the greenhouse until test completion.
(§3) At time of treatment, test pots were flooded to 3 cm above the soil surface, treated by application of test compounds directly to the paddy water, and then maintained at that water depth for the duration of the test. Effects of treatments on rice and weeds were visually evaluated by comparison to untreated controls after 21 days. Plant response ratings, summarized in Table E, are based on a scale of 0 to 100 where 0 is no effect and 100 is complete control. A dash (-) response means no test result.

[2] = test system: redstem (purple redstem, Ammannia coccinea); test: Test E flooded paddy rice and weeds; details: applied to paddy water, 21 days, scale 0 to 100
Description: as §1, §2, §3

[3] = test system: late watergrass (Echinochloa oryzicola); test: Test E flooded paddy rice and weeds; details: applied to paddy water, 21 days, scale 0 to 100
Description: as §1, §2, §3

[4] = test system: flatsedge (rice flatsedge, Cyperus iria); test: Test E flooded paddy rice and weeds; details: applied to paddy water, 21 days, scale 0 to 100
Description: as §1, §2, §3

[5] = test system: junglerice (Echinochloa colona); test: Test E flooded paddy rice and weeds; details: applied to paddy water, 21 days, scale 0 to 100
Description: as §1, §2, §3

[6] = test system: barnyardgrass (Echinochloa crus-galli); test: Test E flooded paddy rice and weeds; details: applied to paddy water, 21 days, scale 0 to 100
Description: as §1, §2, §3

[7] = test system: lambsquarters (Chenopodium album); test: Test C plant response; details: Postemergence, scale 0 to 100
How it was run: (§4)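 Efficacy is a visual percent-control score (0 none, 100 complete), judged against controls 14 days after application. Compounds go on in a non-phytotoxic solvent carrier with surfactant. A dash marks a missing result.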

[8] = test system: kochia (Kochia scoparia); test: Test C plant response; details: Postemergence, scale 0 to 100
How it was run: as §4

[9] = test system: wild oat (Avena fatua); test: Test C plant response; details: Postemergence, scale 0 to 100
How it was run: as §4

[10] = test system: bluegrass (annual bluegrass, Poa annua); test: Test C plant response; details: Postemergence, scale 0 to 100
How it was run: as §4

[11] = test system: wild mustard (Sinapis arvensis); test: Test C plant response; details: Postemergence, scale 0 to 100
How it was run: as §4

[12] = test system: oilseed rape (Brassica napus); test: Test C plant response; details: Postemergence, scale 0 to 100
How it was run: as §4

[13] = test system: bromegrass (downy bromegrass, Bromus tectorum); test: Test C plant response; details: Postemergence, scale 0 to 100
How it was run: as §4

[14] = test system: chickweed (common chickweed, Stellaria media); test: Test C plant response; details: Postemergence, scale 0 to 100
How it was run: as §4

[15] = test system: windgrass (Apera spica-venti); test: Test C plant response; details: Postemergence, scale 0 to 100
How it was run: as §4

[16] = test system: pigweed (Amaranthus retroflexus); test: Test C plant response; details: Postemergence, scale 0 to 100
How it was run: as §4

[17] = test system: green foxtail (Setaria viridis); test: Test C plant response; details: Postemergence, scale 0 to 100
How it was run: as §4

[18] = test system: spring barley (Hordeum vulgare); test: Test C plant response; details: Postemergence, scale 0 to 100
How it was run: as §4

## COc1ccc(-n2c(-c3ccccc3)ncc(C(=O)C3=C(O)CCCC3=O)c2=O)cc1OC [Compound 218]
[1]; 32 g ai/ha
  Plant response rating, Watergrass, Early, Flood: 0
[1]; 64 g ai/ha
  Plant response rating, Watergrass, Early, Flood: 20
[1]; 125 g ai/ha
  Plant response rating, Watergrass, Early, Flood: 20
[1]; 250 g ai/ha
  Plant response rating, Watergrass, Early, Flood: 60
[2]; 32 g ai/ha
  Plant response rating, Redstem, Flood: 65
[2]; 64 g ai/ha
  Plant response rating, Redstem, Flood: 65
[2]; 125 g ai/ha
  Plant response rating, Redstem, Flood: 75
[2]; 250 g ai/ha
  Plant response rating, Redstem, Flood: 80
[3]; 32 g ai/ha
  Plant response rating, Watergrass, Late, Flood: 20
[3]; 64 g ai/ha
  Plant response rating, Watergrass, Late, Flood: 40
[3]; 125 g ai/ha
  Plant response rating, Watergrass, Late, Flood: 40
[3]; 250 g ai/ha
  Plant response rating, Watergrass, Late, Flood: 70
[4]; 32 g ai/ha
  Plant response rating, Flatsedge, Rice, Flood: 75
[4]; 64 g ai/ha
  Plant response rating, Flatsedge, Rice, Flood: 70
[4]; 125 g ai/ha
  Plant response rating, Flatsedge, Rice, Flood: 70
[4]; 250 g ai/ha
  Plant response rating, Flatsedge, Rice, Flood: 75
[5]; 32 g ai/ha
  Plant response rating, Junglerice, Flood: 0
[5]; 64 g ai/ha
  Plant response rating, Junglerice, Flood: 0
[5]; 125 g ai/ha
  Plant response rating, Junglerice, Flood: 65
[5]; 250 g ai/ha
  Plant response rating, Junglerice, Flood: 100
[6]; 32 g ai/ha
  Plant response rating, Barnyardgrass, Flood: 0
[6]; 64 g ai/ha
  Plant response rating, Barnyardgrass, Flood: 0
[6]; 125 g ai/ha
  Plant response rating, Barnyardgrass, Flood: 30
[6]; 250 g ai/ha
  Plant response rating, Barnyardgrass, Flood: 95

## Cc1ccc(-n2c(-c3ccccc3)ncc(C(=O)C3=C(O)CCCC3=O)c2=O)c(C)c1 [Compound 28]
[1]; 32 g ai/ha
  Plant response rating, Watergrass, Early, Flood: 0
[1]; 64 g ai/ha
  Plant response rating, Watergrass, Early, Flood: 0
[1]; 125 g ai/ha
  Plant response rating, Watergrass, Early, Flood: 0
[1]; 250 g ai/ha
  Plant response rating, Watergrass, Early, Flood: 20
[2]; 32 g ai/ha
  Plant response rating, Redstem, Flood: 0
[2]; 64 g ai/ha
  Plant response rating, Redstem, Flood: 40
[2]; 125 g ai/ha
  Plant response rating, Redstem, Flood: 50
[2]; 250 g ai/ha
  Plant response rating, Redstem, Flood: 90
[3]; 32 g ai/ha
  Plant response rating, Watergrass, Late, Flood: 0
[3]; 64 g ai/ha
  Plant response rating, Watergrass, Late, Flood: 0
[3]; 125 g ai/ha
  Plant response rating, Watergrass, Late, Flood: 0
[3]; 250 g ai/ha
  Plant response rating, Watergrass, Late, Flood: 0
[4]; 32 g ai/ha
  Plant response rating, Flatsedge, Rice, Flood: 0
[4]; 64 g ai/ha
  Plant response rating, Flatsedge, Rice, Flood: 0
[4]; 125 g ai/ha
  Plant response rating, Flatsedge, Rice, Flood: 0
[4]; 250 g ai/ha
  Plant response rating, Flatsedge, Rice, Flood: 45
[5]; 32 g ai/ha
  Plant response rating, Junglerice, Flood: 0
[5]; 64 g ai/ha
  Plant response rating, Junglerice, Flood: 0
[5]; 125 g ai/ha
  Plant response rating, Junglerice, Flood: 0
[5]; 250 g ai/ha
  Plant response rating, Junglerice, Flood: 0
[6]; 32 g ai/ha
  Plant response rating, Barnyardgrass, Flood: 0
[6]; 64 g ai/ha
  Plant response rating, Barnyardgrass, Flood: 0
[6]; 125 g ai/ha
  Plant response rating, Barnyardgrass, Flood: 0
[6]; 250 g ai/ha
  Plant response rating, Barnyardgrass, Flood: 0

## Cc1cc(C)cc(-n2c(-c3ccccc3)ncc(C(=O)C3=C(O)CCCC3=O)c2=O)c1 [Compound 33]
[7]; 31 g ai/ha
  Plant response rating: Lambsquarters: 98
[7]; 16 g ai/ha
  Plant response rating: Lambsquarters: 98
[7]; 62 g ai/ha
  Plant response rating: Lambsquarters: 100
[7]; 125 g ai/ha
  Plant response rating: Lambsquarters: 100
[8]; 31 g ai/ha
  Plant response rating: Kochia: 50
[8]; 16 g ai/ha
  Plant response rating: Kochia: 35
[8]; 62 g ai/ha
  Plant response rating: Kochia: 60
[8]; 125 g ai/ha
  Plant response rating: Kochia: 70
[9]; 31 g ai/ha
  Plant response rating: Oat, Wild: 0
[9]; 16 g ai/ha
  Plant response rating: Oat, Wild: 0
[9]; 62 g ai/ha
  Plant response rating: Oat, Wild: 5
[9]; 125 g ai/ha
  Plant response rating: Oat, Wild: 10
[10]; 31 g ai/ha
  Plant response rating: Bluegrass: 0
[10]; 16 g ai/ha
  Plant response rating: Bluegrass: 0
[10]; 62 g ai/ha
  Plant response rating: Bluegrass: 15
[10]; 125 g ai/ha
  Plant response rating: Bluegrass: 40
[11]; 31 g ai/ha
  Plant response rating: Mustard, Wild: 98
[11]; 16 g ai/ha
  Plant response rating: Mustard, Wild: 98
[11]; 62 g ai/ha
  Plant response rating: Mustard, Wild: 98
[11]; 125 g ai/ha
  Plant response rating: Mustard, Wild: 100
[12]; 31 g ai/ha
  Plant response rating: Oilseed Rape: 98
[12]; 16 g ai/ha
  Plant response rating: Oilseed Rape: 90
[12]; 62 g ai/ha
  Plant response rating: Oilseed Rape: 100
[12]; 125 g ai/ha
  Plant response rating: Oilseed Rape: 100
[13]; 31 g ai/ha
  Plant response rating: Bromegrass, Downy: 10
[13]; 16 g ai/ha
  Plant response rating: Bromegrass, Downy: 0
[13]; 62 g ai/ha
  Plant response rating: Bromegrass, Downy: 15
[13]; 125 g ai/ha
  Plant response rating: Bromegrass, Downy: 20
[14]; 31 g ai/ha
  Plant response rating: Chickweed: 90
[14]; 16 g ai/ha
  Plant response rating: Chickweed: 90
[14]; 62 g ai/ha
  Plant response rating: Chickweed: 98
[14]; 125 g ai/ha
  Plant response rating: Chickweed: 100
[15]; 31 g ai/ha
  Plant response rating: Windgrass: 20
[15]; 16 g ai/ha
  Plant response rating: Windgrass: 0
[15]; 62 g ai/ha
  Plant response rating: Windgrass: 25
[15]; 125 g ai/ha
  Plant response rating: Windgrass: 40
[16]; 31 g ai/ha
  Plant response rating: Pigweed: 95
[16]; 16 g ai/ha
  Plant response rating: Pigweed: 75
[16]; 62 g ai/ha
  Plant response rating: Pigweed: 95
[16]; 125 g ai/ha
  Plant response rating: Pigweed: 98
[17]; 31 g ai/ha
  Plant response rating: Foxtail, Green: 95
[17]; 16 g ai/ha
  Plant response rating: Foxtail, Green: 80
[17]; 62 g ai/ha
  Plant response rating: Foxtail, Green: 95
[17]; 125 g ai/ha
  Plant response rating: Foxtail, Green: 95
[18]; 31 g ai/ha
  Plant response rating: Barley, Spring: 0
[18]; 16 g ai/ha
  Plant response rating: Barley, Spring: 0
[18]; 62 g ai/ha
  Plant response rating: Barley, Spring: 0
[18]; 125 g ai/ha
  Plant response rating: Barley, Spring: 0
